Assay results: patent publication US10988459B2 (priority 2015, dated 2021)

Each compound was assayed against human RIP1 kinase domain (2-375) (Homo sapiens (Human), UniProt Q13546) (assay: biochemical). Details: Ki.
Assay type: biochemical
Outline: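 Ki^app comes from Morrison tight-binding fits of fractional activity versus compound concentration. Activity was read as ADP production, via tracer displacement lowering fluorescence polarization (633 nm laser). Conditions: 2 h, 50 nM insect-cell-expressed enzyme, 50 uM ATP, 30 mM MgCl2, 1 mM DTT, 0.5% DMSO, pH 7.5 Hepes.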

Chain of human RIP1 kinase domain (2-375) (Q13546 2-375): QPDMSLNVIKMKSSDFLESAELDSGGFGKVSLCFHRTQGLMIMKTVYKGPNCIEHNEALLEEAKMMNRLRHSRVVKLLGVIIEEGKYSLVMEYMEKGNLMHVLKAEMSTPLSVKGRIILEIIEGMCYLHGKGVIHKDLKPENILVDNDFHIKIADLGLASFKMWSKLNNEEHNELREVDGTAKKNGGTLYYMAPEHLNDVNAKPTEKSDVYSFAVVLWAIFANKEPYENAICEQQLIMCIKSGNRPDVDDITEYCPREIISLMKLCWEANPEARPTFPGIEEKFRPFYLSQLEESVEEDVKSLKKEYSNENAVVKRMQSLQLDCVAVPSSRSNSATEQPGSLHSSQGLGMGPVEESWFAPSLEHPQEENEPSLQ

Ki [µM]	SMILES
0.07	CN1C(=O)[C@@H](NC(=O)c2cn3c(C(F)(F)F)cccc3n2)COc2ccccc21 (single isomer, unassigned) [Example 736]

Same assay, conditions: Table 1; apparent Ki (Morrison tight-binding fit); 50 nM RIP1 kinase domain, 50 uM ATP, 2 hours incubation; read-out: RIP1 Ki

SMILES	Ki [µM]
Cc1cc2n(n1)CC[C@H](NC(=O)c1nnc(Cc3ccccc3)[nH]1)C(=O)N2C [Example 77, (S)-5-benzyl-N-(2,4-dimethyl-5-oxo-5,6,7,8-tetrahydro-4H-pyrazolo[1,5-a][1,3]diazepin-6-yl)-4H-1,2,4-triazole-3-carboxamide]	0.058
CN1C(=O)[C@@H](NC(=O)c2n[nH]c3c2CC(C(F)(F)F)CC3)COc2ccccc21 (stereo partly drawn) [Example 34, N-((S)-5-methyl-4-oxo-2,3,4,5-tetrahydrobenzo[b][1,4]oxazepin-3-yl)-5-(trifluoromethyl)-4,5,6,7-tetrahydro-1H-indazole-3-carboxamide]	0.00768
C[C@@H]1CCc2onc(C(=O)N[C@H]3COc4ccccc4N(C)C3=O)c2C1 [Example 70, (R)-5-methyl-N-((S)-5-methyl-4-oxo-2,3,4,5-tetrahydrobenzo[b][l,4]oxazepin-3-yl)-4,5,6,7-tetrahydrobenzo[d]isoxazole-3-carboxamide]	0.219

Same assay, conditions: Table 5; apparent Ki (Morrison tight-binding fit); 50 nM RIP1 kinase domain, 50 uM ATP, 2 hours incubation; read-out: Ki

Ki [µM]	SMILES
0.267	CC[C@]1(C)OCc2cnc(C(=O)N[C@H]3COc4ccccc4N(C)C3=O)cc21 (single isomer, unassigned) [Example 764]
0.003	CCC[C@@H]1CCCc2nc(C(=O)N[C@H]3COc4cc(F)cc(F)c4NC3=O)nn21 (single isomer, unassigned) [Example 716]
0.044	Cc1cc2n(n1)CC[C@H](NC(=O)c1cn(Cc3ccccc3)cn1)C(=O)N2C [Example 751, 1-benzyl-N-[(6S)-2,4-dimethyl-5-oxo-7,8-dihydro-6H-pyrazolo[1,5-a][1,3]diazepin-6-yl]imidazole-4-carboxamide]
0.059	CN1C(=O)[C@@H](NC(=O)c2ncn(Cc3ccccc3)n2)CCn2nc(CN3CCC(F)(F)C3)cc21 (single isomer, unassigned) [Example 727]

Same assay, conditions: human RIP1 kinase domain (2-375), 50 uM ATP, 2 hours incubation, Transcreener ADP assay; read-out: RIP1 Ki

Ki [µM]	SMILES
0.0193	CN1C(=O)[C@@H](NC(=O)c2cc3c(cn2)CO[C@]32CCOC2)COc2ccccc21 [Example 169, (R)-N-((S)-5-methyl-4-oxo-2,3,4,5-tetrahydrobenzo[b][1,4]oxazepin-3-yl)-4,5-dihydro-2H,3′H-spiro[furan-3,1′-furo[3,4-c]pyridine]-6′-carboxamide]
0.021	CN1C(=O)[C@@H](NC(=O)c2ncn(Cc3ccc(F)cc3)n2)CCn2nc(C3CC3)cc21 [Example 225, (S)—N-(2-cyclopropyl-4-methyl-5-oxo-5,6,7,8-tetrahydro-4H-pyrazolo[1,5-a][1,3]diazepin-6-yl)-1-(4-fluorobenzyl)-1H-1,2,4-triazole-3-carboxamide]
0.0259	Cc1cc2n(n1)CC[C@H](NC(=O)c1ncn(Cc3ccc(F)cc3)n1)C(=O)N2C [Example 222, (S)—N-(2,4-dimethyl-5-oxo-5,6,7,8-tetrahydro-4H-pyrazolo[1,5-a][1,3]diazepin-6-yl)-1-(4-fluorobenzyl)-1H-1,2,4-triazole-3-carboxamide]
0.0292	CC(C)c1ccc2[nH]nc(C(=O)N[C@H]3COc4ccccc4N(C)C3=O)c2n1 [Example 139, 5-isopropyl-N-[(3S)-5-methyl-4-oxo-2,3-dihydro-1,5-benzoxazepin-3-yl]-1H-pyrazolo[4,3-b]pyridine-3-carboxamide]

Same assay, conditions: human RIP1 kinase domain (2-375), Transcreener ADP assay, 50 uM ATP, 2 hours incubation; read-out: RIP1 Ki

Ki [µM]	SMILES
0.0578	CN1C(=O)[C@@H](NC(=O)c2ncn(Cc3ccc(F)cc3)n2)CCn2nc([C@@H]3CC3(F)F)cc21 [Example 323, N—((S)-2-((S)-2,2-difluorocyclopropyl)-4-methyl-5-oxo-5,6,7,8-tetrahydro-4H-pyrazolo[1,5-a][1,3]diazepin-6-yl)-1-(4-fluorobenzyl)-1H-1,2,4-triazole-3-carboxamide]
0.0387	Cc1nn2c(c1C)N(C)C(=O)[C@@H](NC(=O)c1ncn(Cc3ccc(F)cc3)n1)CC2 [Example 281, (S)-1-(4-fluorobenzyl)-N-(2,3,4-trimethyl-5-oxo-5,6,7,8-tetrahydro-4H-pyrazolo[1,5-a][1, 3]diazepin-6-yl)-1H-1,2,4-triazole-3-carboxamide]
0.013	CN1C(=O)[C@@H](NC(=O)c2ncn(Cc3cccc(F)c3F)n2)CCn2nc(C3CC3)cc21 [Example 331, (S)—N-(2-cyclopropyl-4-methyl-5-oxo-5,6,7,8-tetrahydro-4H-pyrazolo[1,5-a][1,3]diazepin-6-yl)-1-(2,3-difluorobenzyl)-1H-1,2,4-triazole-3-carboxamide]
5.7	Cc1cc(Cn2cnc(C(=O)NC3CCn4nc(C5CC5)cc4N(C)C3=O)n2)ccn1 (centres unmarked) [Example 242, N-(2-cyclopropyl-4-methyl-5-oxo-5,6,7,8-tetrahydro-4H-pyrazolo[1,5-a][1,3]diazepin-6-yl)-1-((2-methylpyridin-4-yl)methyl)-1H-1,2,4-triazole-3-carboxamide]
0.0103	CN1C(=O)[C@@H](NC(=O)c2ncn(Cc3cc(F)ccc3F)n2)CCn2nc(C3CC3)cc21 [Example 304, (S)—N-(2-cyclopropyl-4-methyl-5-oxo-5,6,7,8-tetrahydro-4H-pyrazolo[1,5-a][1,3]diazepin-6-yl)-1-(2,5-difluorobenzyl)-1H-1,2,4-triazole-3-carboxamide]

Same assay, conditions: read-out: RIP1 Ki

SMILES	Ki [µM]
C[C@H]1CCc2[nH]nc(C(=O)N[C@H]3COc4ccccc4N(C)C3=O)c2C1 [Example 55, (S)-5-methyl-N-((S)-5-methyl-4-oxo-2,3,4,5-tetrahydrobenzo[b][1,4]oxazepin-3-yl)-4,5,6,7-tetrahydro-1H-indazole-3-carboxamide]	0.103

Same assay, conditions: scale-up batches (Examples A-C); apparent Ki (Morrison tight-binding fit); 50 nM RIP1 kinase domain, 50 uM ATP; read-out: Ki

SMILES	Ki [µM]
CN1C(=O)[C@@H](NC(=O)c2ncn(Cc3ccccc3)n2)CCn2nccc21 [Example B]	0.013

Same assay, conditions: tight-binding apparent inhibition constant; human RIP1 kinase domain (2-375) 50 nM, 50 uM ATP, 2 hours; read-out: Ki

Ki [µM]	SMILES
0.029	CN1C(=O)[C@@H](NC(=O)c2nc3n(n2)CCOC3c2ccccc2)COc2ccccc21 (stereo partly drawn) [Example 515, 8-phenyl-N-[(3S)-5-methyl-4-oxo-2,3-dihydro-1,5-benzoxazepin-3-yl]-6,8-dihydro-5H-[1,2,4]triazolo[5,1-c][1,4]oxazine-2-carboxamide]
0.11	CN1C(=O)[C@@H](NC(=O)c2ncn(Cc3ncccc3F)n2)CCn2nccc21 [Example 653, 1-[(3-fluoro-2-pyridyl)methyl]-N-(6S)-4-methyl-5-oxo-7,8-dihydro-6H-pyrazolo[1,5-a][1,3]diazepin-6-yl-1,2,4-triazole-3-carboxamide]
0.05	CC(C)Oc1cc2n(n1)CCC(NC(=O)c1ncn(Cc3ccccc3)n1)C(=O)N2C (centres unmarked) [Example 461, 1-Benzyl-N-(2-isopropoxy-4-methyl-5-oxo-5,6,7,8-tetrahydro-4H-pyrazolo[1,5-a][1,3]diazepin-6-yl)-1H-1,2,4-triazole-3-carboxamide]
0.45	CN1C(=O)[C@@H](NC(=O)c2nc3n(n2)CC[C@H]3c2ccccc2)COc2ccccc21 [Example 572, (7S)-7-phenyl-N-[(3S)-5-methyl-4-oxo-2,3-dihydro-1,5-benzoxazepin-3-yl]-6,7-dihydro-5H-pyrrolo[1,2-b][1,2,4]triazole-2-carboxamide]
0.154	CN1C(=O)[C@@H](NC(=O)c2nc3n(n2)C(c2ccccc2)CCC3)CCn2nccc21 (stereo partly drawn) [Example 380, N—((S)-4-methyl-5-oxo-5,6,7,8-tetrahydro-4H-pyrazolo[1,5-a][1,3]diazepin-6-yl)-5-phenyl-5,6,7,8-tetrahydro-[1,2,4]triazolo[1,5-a]pyridine-2-carboxamide]
1.8	CCC(C)(O)c1ccnc(C(=O)N[C@H]2COc3ccccc3N(C)C2=O)c1 (stereo partly drawn) [Example 488, 4-(1-hydroxy-1-methyl-propyl)-N-[(3S)-5-methyl-4-oxo-2,3-dihydro-1,5-benzoxazepin-3-yl]pyridine-2-carboxamide]
0.59	CCCC1(C)OCc2cnc(C(=O)N[C@H]3CCn4nc(C)cc4N(C)C3=O)nc21 (stereo partly drawn) [Example 564, 7-methyl-7-propyl-N-[(6S)-2,4-dimethyl-5-oxo-7,8-dihydro-6H-pyrazolo[1,5-a][1,3]diazepin-6-yl]-5H-furo[3,4-d]pyrimidine-2-carboxamide]
0.0049	O=C(N[C@H]1COc2cc(F)cc(F)c2NC1=O)c1ncc2c(n1)C1(CCCC1)OC2 [Example 481, N-[(3S)-6,8-difluoro-4-oxo-3,5-dihydro-2H-1,5-benzoxazepin-3-yl]spiro[5H-furo[3,4-d]pyrimidine-7,1′-cyclopentane]-2-carboxamide]
0.19	Cc1nc(C)n2c1N(C)C(=O)[C@H](NC(=O)c1ncn(Cc3ccccc3)n1)CC2 [Example 608, 1-benzyl-N-(3R)-1,7,9-trimethyl-2-oxo-4,5-dihydro-3H-imidazo[1,5-a][1,3]diazepin-3-yl-1,2,4-triazole-3-carboxamide]
0.0075	Cc1cc2n(n1)CC[C@H](NC(=O)c1ncn(Cc3ccccc3F)n1)C(=O)N2C [Example 518, 1-[(2-fluorophenyl)methyl]-N-(6S)-2,4-dimethyl-5-oxo-7,8-dihydro-6H-pyrazolo[1,5-a][1,3]diazepin-6-yl-1,2,4-triazole-3-carboxamide]
0.0498	CC(C)[C@@H]1CCc2nc(C(=O)N[C@H]3CCn4nccc4N(C)C3=O)nn21 (single isomer, unassigned) [Example 353]
0.083	CN1C(=O)[C@@H](NC(=O)c2ncc3c(n2)C2(CCCOC2)OC3)COc2ccccc21 (stereo partly drawn) [Example 511, N-[(3S)-5-methyl-4-oxo-2,3-dihydro-1,5-benzoxazepin-3-yl]spiro[5H-furo[3,4-d]pyrimidine-7,3′-tetrahydropyran]-2-carboxamide]
0.063	Cc1cc2n(n1)CC[C@H](NC(=O)c1ncn(Cc3ccccc3)n1)C(=O)N2 [Example 586]
